Assay results as given in US20060165687A1, “Vaccine adjuvant” (DUKE UNIVERSITY, priority 2004, published 2006).

B1: daclizumab (antibody, chains of the INN, looked up, V domains shown)
VH: QVQLVQSGAEVKKPGSSVKVSCKASGYTFTSYRMHWVRQAPGQGLEWIGYINPSTGYTEYNQKFKDKATITADESTNTAYMELSSLRSEDTAVYYCARGGGVFDYWGQGTLVTVSS
VL: DIQMTQSPSTLSASVGDRVTITCSASSSISYMHWYQQKPGKAPKLLIYTTSNLASGVPARFSGSGSGTEFTLTISSLQPDDFATYYCHQRSTYPLTFGQGTKVEVK

Experiments:
[1] = tested on: Foxp3+, CD25+, CD4+ T-regulatory cells; assay: T-regulatory recovery after depletion and treatment with TLR-ligands; conditions: for effect on thymopoeisis (suggested by day 10 spike in percent thymic T-reg): after T-regulatory depletion; for induction of T-regulatory recovery in the thymus and spleen: conclusion
[2] = tested on: T regulatory phenotype cells; design: species or system non-human primate; conditions: in vivo

Molecule | effect on thymopoeisis (suggested by day 10 spike in percent thymic T-reg) [1] | induction of T-regulatory recovery in the thymus and spleen [1] | percent Foxp3+, CD25+, CD4+ splenocytes versus untreated mice ([1]; day 10, T-reg depleted mice) | T-regulatory recovery in the spleen ([1]; day 10, summary) | percent Foxp3+, CD25+, CD4+ splenocytes versus untreated mice ([1]; day 17, T-reg depleted mice) | T-reg recovery in the thymus ([1]; day 17, summary) | T-regulatory recovery in the spleen ([1]; day 17, summary) | T-regulatory recovery in the thymus ([1]; day 10, summary) | time of maximum depletion of % and number of T regulatory phenotype cells [2] [weeks] | time until which depletion lasted [2] [weeks]
Poly (I:C) [TLR-3 ligand] | have an effect on thymopoeisis | able to induce T-regulatory recovery | significantly higher levels | accelerated | significantly increased levels | greater | accelerated |  |  | 
flagellin [TLR-5 ligand] | no effect |  |  |  |  |  |  |  |  | 
C=CCn1c(=O)n([C@@H]2O[C@H](CO)[C@@H](O)[C@H]2O)c2nc(N)[nH]c(=O)c21 [TLR-7 ligand, loxoribine] | have an effect on thymopoeisis | able to induce T-regulatory recovery |  |  | significantly increased levels |  | accelerated | accelerated |  | 
B1 |  |  |  |  |  |  |  |  | 2 | 4
